Experiments:
[1] = biological target: T1, Alpha-1B adrenergic receptor (Rattus norvegicus, UniProt P15823); test: DRUGMATRIX: Alpha-1B adrenergic receptor radioligand binding (ligand: prazosin); assay type: cell membranes, Wistar, Liver, Membrane; conditions: Not Active = under 50% inhibition at 10 µM; for Ki: read-out: Ki
T1 sequence (P15823 whole entry): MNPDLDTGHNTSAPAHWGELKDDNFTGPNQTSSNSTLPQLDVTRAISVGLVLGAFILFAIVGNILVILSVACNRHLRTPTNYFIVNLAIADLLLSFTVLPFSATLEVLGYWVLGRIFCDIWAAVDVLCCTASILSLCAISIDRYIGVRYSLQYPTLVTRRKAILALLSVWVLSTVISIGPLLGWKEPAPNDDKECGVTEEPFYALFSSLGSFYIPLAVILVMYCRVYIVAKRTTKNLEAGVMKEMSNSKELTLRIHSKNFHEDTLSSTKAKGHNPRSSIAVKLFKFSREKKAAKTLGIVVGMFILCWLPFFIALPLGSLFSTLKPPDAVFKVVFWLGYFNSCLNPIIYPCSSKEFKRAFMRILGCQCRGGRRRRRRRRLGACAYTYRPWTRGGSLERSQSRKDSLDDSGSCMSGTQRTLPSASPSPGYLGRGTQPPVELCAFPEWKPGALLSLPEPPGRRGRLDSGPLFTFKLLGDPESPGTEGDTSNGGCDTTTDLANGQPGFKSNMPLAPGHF

[2] = biological target: T2, Alpha-2C adrenergic receptor (Homo sapiens, UniProt P18825); test: DRUGMATRIX: Adrenergic Alpha-2C radioligand binding (ligand: [3H] MK-912); assay type: cell membranes, Sf9, Membrane
T2 sequence (P18825 whole entry): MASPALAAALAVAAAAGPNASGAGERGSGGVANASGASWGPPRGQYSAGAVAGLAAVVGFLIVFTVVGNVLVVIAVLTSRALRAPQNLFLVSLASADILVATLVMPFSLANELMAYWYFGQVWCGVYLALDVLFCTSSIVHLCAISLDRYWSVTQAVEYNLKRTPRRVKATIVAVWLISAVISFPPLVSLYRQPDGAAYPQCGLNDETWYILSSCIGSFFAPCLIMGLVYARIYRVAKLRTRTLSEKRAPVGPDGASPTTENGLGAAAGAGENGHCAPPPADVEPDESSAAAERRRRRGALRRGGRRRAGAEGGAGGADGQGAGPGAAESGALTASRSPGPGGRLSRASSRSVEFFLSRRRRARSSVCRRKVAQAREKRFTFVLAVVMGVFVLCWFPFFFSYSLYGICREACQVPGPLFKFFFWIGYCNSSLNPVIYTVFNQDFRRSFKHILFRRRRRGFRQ

[3] = DRUGMATRIX: Serotonin (5-Hydroxytryptamine) 5-HT3 radioligand binding (ligand: [3H] GR-65630); assay type: cell membranes, Membrane; conditions: hek293; Not Active = under 50% inhibition at 10 µM
[4] = DRUGMATRIX: Tumor Necrosis Factor (TNF), Non-Selective radioligand binding (ligand: [125I] TNF-alpha); assay type: cell membranes, Membrane; conditions: u-937; Not Active = under 50% inhibition at 10 µM
D(3) dopamine receptor = D(3) dopamine receptor (Homo sapiens, UniProt P35462); test: DRUGMATRIX: Dopamine D3 radioligand binding (ligand: [3H] Spiperone); assay type: cell membranes, CHO, Membrane
[5] = DRUGMATRIX: Imidazoline I2, Central radioligand binding (ligand: [3H] Idazoxan); assay type: cell membranes, Rattus norvegicus, Wistar, Cerebral cortex, Membrane; conditions: Not Active = under 50% inhibition at 10 µM
[6] = biological target: T3, Neuropeptide Y receptor type 1 (Homo sapiens, UniProt P25929); assay type: cell membranes, Membrane; conditions: sk-n-mc; also: in other assays of this panel Not Active means under 50% inhibition at 10 µM
T3 sequence (P25929 whole entry): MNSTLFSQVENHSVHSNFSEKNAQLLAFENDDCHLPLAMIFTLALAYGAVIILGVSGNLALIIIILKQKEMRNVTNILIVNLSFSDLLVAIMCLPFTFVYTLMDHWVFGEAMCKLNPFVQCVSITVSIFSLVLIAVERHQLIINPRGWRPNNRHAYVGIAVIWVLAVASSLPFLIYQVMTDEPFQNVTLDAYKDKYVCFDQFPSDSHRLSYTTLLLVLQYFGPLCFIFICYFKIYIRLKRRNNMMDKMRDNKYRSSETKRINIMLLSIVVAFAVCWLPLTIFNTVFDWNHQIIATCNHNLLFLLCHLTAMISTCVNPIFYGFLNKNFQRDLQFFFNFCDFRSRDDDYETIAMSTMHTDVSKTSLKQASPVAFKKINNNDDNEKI

Neutrophil elastase = biological target: T4, Neutrophil elastase (Homo sapiens, UniProt P08246); assay type: tissue-based;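 also: inhibition of neutrophil elastase enzyme activity, measured with a p-nitroanilide-linked peptide substrate; in other assays of this panel Not Active means under 50% inhibition at 10 µM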
T4 sequence (P08246 whole entry): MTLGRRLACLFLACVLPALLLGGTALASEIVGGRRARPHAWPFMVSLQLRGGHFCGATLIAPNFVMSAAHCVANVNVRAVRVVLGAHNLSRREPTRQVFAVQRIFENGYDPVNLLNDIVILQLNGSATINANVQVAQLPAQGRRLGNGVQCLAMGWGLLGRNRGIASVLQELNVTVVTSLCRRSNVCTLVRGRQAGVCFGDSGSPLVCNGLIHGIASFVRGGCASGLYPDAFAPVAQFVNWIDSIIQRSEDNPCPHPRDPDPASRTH

Interstitial collagenase = biological target: T5, Interstitial collagenase (Homo sapiens, UniProt P03956); test: biochemical; assay type: tissue-based, Rheumatoid synovial fibroblasts;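 also: MMP-1 enzyme inhibition assay using a peptide substrate; in other assays of this panel Not Active means under 50% inhibition at 10 µM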
T5 sequence (P03956 whole entry): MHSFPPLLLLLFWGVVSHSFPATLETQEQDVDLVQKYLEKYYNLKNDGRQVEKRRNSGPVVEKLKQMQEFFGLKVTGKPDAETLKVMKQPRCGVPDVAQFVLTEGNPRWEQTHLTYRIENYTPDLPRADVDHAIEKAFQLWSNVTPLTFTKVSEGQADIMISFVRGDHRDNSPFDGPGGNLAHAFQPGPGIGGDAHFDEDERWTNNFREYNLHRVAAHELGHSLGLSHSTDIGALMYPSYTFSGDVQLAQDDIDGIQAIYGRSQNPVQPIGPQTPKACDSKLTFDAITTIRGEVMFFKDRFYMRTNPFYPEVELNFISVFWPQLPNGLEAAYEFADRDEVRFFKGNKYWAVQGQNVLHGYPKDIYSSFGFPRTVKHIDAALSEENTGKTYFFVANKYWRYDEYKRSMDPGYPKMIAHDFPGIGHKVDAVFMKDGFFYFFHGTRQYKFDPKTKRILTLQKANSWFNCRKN

[7] = biological target: Epidermal growth factor receptor (Homo sapiens, UniProt P00533); test: DRUGMATRIX: Protein Tyrosine Kinase, EGF Receptor enzyme inhibition (substrate: Poly(Glu:Tyr)); assay type: cell-based, Insect cells; conditions: Not Active = under 50% inhibition at 10 µM
Epidermal growth factor receptor, sequence (P00533 whole entry): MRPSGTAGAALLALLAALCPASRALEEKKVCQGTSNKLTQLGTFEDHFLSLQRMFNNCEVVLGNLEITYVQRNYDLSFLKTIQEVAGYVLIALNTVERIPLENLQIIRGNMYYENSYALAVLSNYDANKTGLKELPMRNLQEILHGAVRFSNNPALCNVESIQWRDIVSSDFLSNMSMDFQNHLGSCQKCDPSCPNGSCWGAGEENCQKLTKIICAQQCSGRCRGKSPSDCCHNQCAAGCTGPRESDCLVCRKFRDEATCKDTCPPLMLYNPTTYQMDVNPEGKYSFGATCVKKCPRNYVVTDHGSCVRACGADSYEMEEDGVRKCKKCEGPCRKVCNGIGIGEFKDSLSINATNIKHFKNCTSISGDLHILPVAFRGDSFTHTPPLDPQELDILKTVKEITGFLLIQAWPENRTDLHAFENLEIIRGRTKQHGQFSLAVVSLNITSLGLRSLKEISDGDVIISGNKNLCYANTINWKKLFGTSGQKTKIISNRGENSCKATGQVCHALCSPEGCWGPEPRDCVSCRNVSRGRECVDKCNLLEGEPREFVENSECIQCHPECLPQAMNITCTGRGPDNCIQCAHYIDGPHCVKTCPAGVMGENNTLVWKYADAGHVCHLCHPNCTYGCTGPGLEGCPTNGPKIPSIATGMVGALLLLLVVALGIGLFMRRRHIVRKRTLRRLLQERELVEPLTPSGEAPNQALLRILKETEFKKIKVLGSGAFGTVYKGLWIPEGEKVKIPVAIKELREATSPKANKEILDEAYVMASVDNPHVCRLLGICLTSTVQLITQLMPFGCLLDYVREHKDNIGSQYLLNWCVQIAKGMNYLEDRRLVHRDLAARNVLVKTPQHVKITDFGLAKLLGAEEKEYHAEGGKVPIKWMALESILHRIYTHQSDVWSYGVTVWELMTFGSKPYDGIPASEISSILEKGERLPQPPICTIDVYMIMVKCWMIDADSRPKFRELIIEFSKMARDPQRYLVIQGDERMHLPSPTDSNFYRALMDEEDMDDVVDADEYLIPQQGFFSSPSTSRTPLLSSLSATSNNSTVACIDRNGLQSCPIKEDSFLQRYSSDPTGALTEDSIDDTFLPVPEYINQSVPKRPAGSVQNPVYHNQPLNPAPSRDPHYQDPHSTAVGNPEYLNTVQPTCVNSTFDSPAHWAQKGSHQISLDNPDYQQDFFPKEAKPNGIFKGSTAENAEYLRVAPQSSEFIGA

D(3) dopamine receptor, sequence (P35462 whole entry): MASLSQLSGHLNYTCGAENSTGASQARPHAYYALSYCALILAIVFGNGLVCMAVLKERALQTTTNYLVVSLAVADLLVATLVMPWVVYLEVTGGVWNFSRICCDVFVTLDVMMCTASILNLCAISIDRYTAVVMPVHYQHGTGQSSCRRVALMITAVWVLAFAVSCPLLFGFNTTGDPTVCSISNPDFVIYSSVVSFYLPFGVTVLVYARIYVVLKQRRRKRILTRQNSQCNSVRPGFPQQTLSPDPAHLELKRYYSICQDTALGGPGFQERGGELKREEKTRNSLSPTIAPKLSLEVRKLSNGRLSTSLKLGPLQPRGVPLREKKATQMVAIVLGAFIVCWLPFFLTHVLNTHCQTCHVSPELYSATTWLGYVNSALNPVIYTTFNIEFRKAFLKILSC

Compound | IC50 [1] | IC50 ([2]; sf9) | IC50 [3] | Ki [3] | IC50 [4] | Ki [4] | IC50 (D(3) dopamine receptor; cho) | IC50 [5] | Ki [5] | IC50 [6] | IC50 (Neutrophil elastase) | IC50 (Interstitial collagenase) | IC50 ([7]; insect cells) | IC50 ([2]; read-out: IC50) [nM] | Ki ([2]; read-out: Ki) [nM] | IC50 ([1]; read-out: IC50) [nM] | Ki [1] [nM] | IC50 (D(3) dopamine receptor; read-out: IC50) [nM] | Ki (D(3) dopamine receptor; read-out: Ki) [nM] | IC50 ([7]; read-out: IC50) [nM]
CC1=C(CC(=O)O)c2cc(F)ccc2/C1=C\c1ccc([S+](C)[O-])cc1 (stereo unspecified) | Not Active | Not Active | Not Active | Not Active | Not Active | Not Active | Not Active | Not Active | Not Active | Not Active | Not Active | Not Active | Not Active |  |  |  |  |  |  | 
N[C@H](CSC(=S)NCc1ccccc1)C(=O)O | Not Active | Not Active | Not Active | Not Active | Not Active | Not Active | Not Active | Not Active | Not Active | Not Active | Not Active | Not Active | Not Active |  |  |  |  |  |  | 
CC(=O)N[C@@H]1[C@H](Oc2c3cc4cc2Oc2ccc(cc2Cl)[C@@H](O[C@@H]2O[C@@H](CO)[C@@H](O)[C@H](O)[C@@H]2NC(C)=O)[C@@H]2NC(=O)[C@H](NC(=O)[C@@H]4NC(=O)[C@H]4NC(=O)[C@@H](Cc5ccc(c(Cl)c5)O3)NC(=O)[C@H](N)c3ccc(O)c(c3)Oc3cc(O)cc4c3)c3ccc(O)c(c3)-c3c(O[C@H]4O[C@H](CO)[C@@H](O)[C@@H](O)[C@@H]4O)cc(O)cc3[C@@H](C(=O)O)NC2=O)O[C@@H](CO)[C@@H](O)[C@@H]1O | Not Active | Not Active | Not Active | Not Active | Not Active | Not Active | Not Active | Not Active | Not Active | Not Active | Not Active | Not Active | Not Active |  |  |  |  |  |  | 
Clc1ccc2c(c1)C(N1CCNCC1)=Nc1ccccc1O2 [AMOXAPINE] |  |  |  |  |  |  |  |  |  | Not Active | Not Active | Not Active | Not Active |  |  |  |  |  |  | 
COc1cc2c(c(OC)c1OC)-c1ccc(OC)c(=O)cc1[C@@H](NC(C)=O)CC2 [COLCHICINE] |  | Not Active |  |  |  |  | Not Active |  |  | Not Active | Not Active | Not Active | Not Active |  |  |  |  |  |  | 
CN1CCC(=C2c3ccccc3C=Cc3ccccc32)CC1 [CYPROHEPTADINE] |  |  |  |  |  |  |  |  |  | Not Active | Not Active | Not Active | Not Active | 1270 | 185 |  |  |  |  | 
CC/C(=C(/CC)c1ccc(O)cc1)c1ccc(O)cc1 [DIETHYLSTILBESTROL] |  |  |  |  |  |  |  |  |  | Not Active | Not Active | Not Active | Not Active |  |  |  |  |  |  | 
CC(=O)N1CCN(c2ccc(OCC3COC(Cn4ccnc4)(c4ccc(Cl)cc4Cl)O3)cc2)CC1 (stereo unspecified) [KETOCONAZOLE] |  | Not Active | Not Active | Not Active | Not Active | Not Active | Not Active | Not Active | Not Active | Not Active | Not Active | Not Active | Not Active |  |  | 22900 | 12700 |  |  | 
C=CCN1CC[C@]23c4c5ccc(O)c4O[C@H]2C(=O)CC[C@@]3(O)[C@H]1C5 [NALOXONE] |  | Not Active |  |  |  |  | Not Active |  |  | Not Active | Not Active | Not Active | Not Active |  |  |  |  |  |  | 
COCCOC(=O)C1=C(C)NC(C)=C(C(=O)OC(C)C)C1c1cccc([N+](=O)[O-])c1 (stereo unspecified) [NIMODIPINE] | Not Active | Not Active | Not Active | Not Active | Not Active | Not Active | Not Active | Not Active | Not Active | Not Active | Not Active | Not Active | Not Active |  |  |  |  |  |  | 
CC(C)NCC(O)COc1cccc2ccccc12 (stereo unspecified) [PROPRANOLOL] |  | Not Active |  |  |  |  | Not Active |  |  | Not Active | Not Active | Not Active | Not Active |  |  |  |  |  |  | 
COCCCOc1ccnc(C[S+]([O-])c2nc3ccccc3[nH]2)c1C (stereo unspecified) [RABEPRAZOLE] | Not Active | Not Active | Not Active | Not Active | Not Active | Not Active |  | Not Active | Not Active | Not Active | Not Active | Not Active | Not Active |  |  |  |  | 2330 | 790 | 
O=C(c1ccc(OCCN2CCCCC2)cc1)c1c(-c2ccc(O)cc2)sc2cc(O)ccc12 [RALOXIFENE] |  |  | Not Active | Not Active | Not Active | Not Active |  | Not Active | Not Active | Not Active | Not Active | Not Active | Not Active |  |  | 2690 | 1490 |  |  | 
CNC(=C[N+](=O)[O-])NCCSCc1ccc(CN(C)C)o1 [RANITIDINE] | Not Active | Not Active | Not Active | Not Active | Not Active | Not Active | Not Active | Not Active | Not Active | Not Active | Not Active | Not Active | Not Active |  |  |  |  |  |  | 
CC(C)(C)c1ccc(C(O)CCCN2CCC(C(O)(c3ccccc3)c3ccccc3)CC2)cc1 (stereo unspecified) [TERFENADINE] |  |  | Not Active | Not Active | Not Active | Not Active |  | Not Active | Not Active | Not Active | Not Active | Not Active |  |  |  | 3340 | 1850 |  |  | 3570
C[C@@H](N)[C@H]1CC[C@H](C(=O)Nc2ccncc2)CC1 [Y-27632] | Not Active | Not Active | Not Active | Not Active | Not Active | Not Active | Not Active | Not Active | Not Active | Not Active | Not Active | Not Active |  |  |  |  |  |  |  | 

From ChEMBL document CHEMBL1909046, “DrugMatrix in vitro pharmacology data”
